Test results taken from patent publication US9108903B2, “Amides as modulators of sodium channels” (VERTEX PHARMACEUTICALS INCORPORATED, priority 2013, dated 2015).

molecular target: human Nav1.8 (Homo sapiens (Human), UniProt Q9Y5Y9); assay: E-VIPR optical membrane potential assay with electrical stimulation; type: cell-based; settings: HEK cells expressing human Nav1.8
From the text: Assays for Detecting and Measuring NaV Inhibition Properties of Compounds E-VIPR Optical Membrane Potential Assay Method with Electrical Stimulation
Sodium channels are voltage-dependent proteins that can be activated by inducing membrane voltage changes by applying electric fields. The electrical stimulation instrument and methods of use are described in Ion Channel Assay Methods PCT/US01/21652, herein incorporated by reference and are referred to as E-VIPR. The instrument comprises a microtiter plate handler, an optical system for exciting the coumarin dye while simultaneously recording the coumarin and oxonol emissions, a waveform generator, a current- or voltage-controlled amplifier, and a device for inserting electrodes in well. Under integrated computer control, this instrument passes user-programmed electrical stimulus protocols to cells within the wells of the microtiter plate.
24 hours before the assay on E-VIPR, HEK cells expressing human Nav1.8 were seeded in 384-well poly-lysine coated plates at 15,000-20,000 cells per well. HEK cells were grown in media (exact composition is specific to each cell type and NaV subtype) supplemented with 10% FBS (Fetal Bovine Serum, qualified; GibcoBRL #16140-071) and 1% Pen-Strep (Penicillin-Streptomycin; GibcoBRL #15140-122). Cells were grown in vented cap flasks, in 90% humidity and 5% CO2.
100 mg/mL Pluronic F-127 (Sigma #P2443), in dry DMSO
Compound Plates: 384-well round bottom plate, e.g. Corning 384-well Polypropylene Round Bottom #3656
Cell Plates: 384-well tissue culture treated plate, e.g. Greiner #781091-1B
Bath1 buffer: Glucose 10 mM (1.8 g/L), Magnesium Chloride (Anhydrous), 1 mM (0.095 g/L), Calcium Chloride, 2 mM (0.222 g/L), HEPES 10 mM (2.38 g/L), Potassium Chloride, 4.5 mM (0.335 g/L), Sodium Chloride 160 mM (9.35 g/L).
Hexyl Dye Solution: Bath1 Buffer+0.5% β-cyclodextrin (make this prior to use, Sigma #C4767), 8 μM CC2-DMPE+2.5 μM DiSBAC6(3). To make the solution added volume of 10% Pluronic F127 stock equal to volumes of CC2-DMPE+DiSBAC6(3). The order of preparation was first mix Pluronic and CC2-DMPE, then added DiSBAC6(3) while vortexing, then added Bath1+β-Cyclodextrin.
1) Pre-spotted compounds (in neat DMSO) into compound plates. Vehicle control (neat DMSO), the positive control (20 mM DMSO stock tetracaine, 125 μM final in assay) and test compounds were added to each well at 160× desired final concentration in neat DMSO. Final compound plate volume was 80 μL (80-fold intermediate dilution from 1 μL DMSO spot; 160-fold final dilution after transfer to cell plate). Final DMSO concentration for all wells in assay was 0.625%.
2) Prepared Hexyl Dye Solution.
3) Prepared cell plates. On the day of the assay, medium was aspirated and cells were washed three times with 100 μL of Bath1 Solution, maintaining 25 μL residual volume in each well.
4) Dispensed 25 μL per well of Hexyl Dye Solution into cell plates. Incubated for 20-35 minutes at room temp or ambient conditions.
5) Dispensed 80 μL per well of Bath1 into compound plates. Acid Yellow-17 (1 mM) was added and Potassium Chloride was altered from 4.5 to 20 mM depending on the NaV subtype and assay sensitivity.
6) Washed cell plates three times with 100 μL per well of Bath1, leaving 25 μL of residual volume. Then transfered 25 uL per well from Compound Plates to Cell Plates. Incubated for 20-35 minutes at room temp/ambient condition.
7) Read Plate on E-VIPR. Used the current-controlled amplifier to deliver stimulation wave pulses for 10 seconds and a scan rate of 200 Hz. A pre-stimulus recording was performed for 0.5 seconds to obtain the un-stimulated intensities baseline. The stimulatory waveform was followed by 0.5 seconds of post-stimulation recording to examine the relaxation to the resting state.
Data was analyzed and reported as normalized ratios of emission intensities measured in the 460 nm and 580 nm channels. The response as a function of time was reported as the ratios obtained using the following formula: […]

human Nav1.8, sequence (Q9Y5Y9 whole entry): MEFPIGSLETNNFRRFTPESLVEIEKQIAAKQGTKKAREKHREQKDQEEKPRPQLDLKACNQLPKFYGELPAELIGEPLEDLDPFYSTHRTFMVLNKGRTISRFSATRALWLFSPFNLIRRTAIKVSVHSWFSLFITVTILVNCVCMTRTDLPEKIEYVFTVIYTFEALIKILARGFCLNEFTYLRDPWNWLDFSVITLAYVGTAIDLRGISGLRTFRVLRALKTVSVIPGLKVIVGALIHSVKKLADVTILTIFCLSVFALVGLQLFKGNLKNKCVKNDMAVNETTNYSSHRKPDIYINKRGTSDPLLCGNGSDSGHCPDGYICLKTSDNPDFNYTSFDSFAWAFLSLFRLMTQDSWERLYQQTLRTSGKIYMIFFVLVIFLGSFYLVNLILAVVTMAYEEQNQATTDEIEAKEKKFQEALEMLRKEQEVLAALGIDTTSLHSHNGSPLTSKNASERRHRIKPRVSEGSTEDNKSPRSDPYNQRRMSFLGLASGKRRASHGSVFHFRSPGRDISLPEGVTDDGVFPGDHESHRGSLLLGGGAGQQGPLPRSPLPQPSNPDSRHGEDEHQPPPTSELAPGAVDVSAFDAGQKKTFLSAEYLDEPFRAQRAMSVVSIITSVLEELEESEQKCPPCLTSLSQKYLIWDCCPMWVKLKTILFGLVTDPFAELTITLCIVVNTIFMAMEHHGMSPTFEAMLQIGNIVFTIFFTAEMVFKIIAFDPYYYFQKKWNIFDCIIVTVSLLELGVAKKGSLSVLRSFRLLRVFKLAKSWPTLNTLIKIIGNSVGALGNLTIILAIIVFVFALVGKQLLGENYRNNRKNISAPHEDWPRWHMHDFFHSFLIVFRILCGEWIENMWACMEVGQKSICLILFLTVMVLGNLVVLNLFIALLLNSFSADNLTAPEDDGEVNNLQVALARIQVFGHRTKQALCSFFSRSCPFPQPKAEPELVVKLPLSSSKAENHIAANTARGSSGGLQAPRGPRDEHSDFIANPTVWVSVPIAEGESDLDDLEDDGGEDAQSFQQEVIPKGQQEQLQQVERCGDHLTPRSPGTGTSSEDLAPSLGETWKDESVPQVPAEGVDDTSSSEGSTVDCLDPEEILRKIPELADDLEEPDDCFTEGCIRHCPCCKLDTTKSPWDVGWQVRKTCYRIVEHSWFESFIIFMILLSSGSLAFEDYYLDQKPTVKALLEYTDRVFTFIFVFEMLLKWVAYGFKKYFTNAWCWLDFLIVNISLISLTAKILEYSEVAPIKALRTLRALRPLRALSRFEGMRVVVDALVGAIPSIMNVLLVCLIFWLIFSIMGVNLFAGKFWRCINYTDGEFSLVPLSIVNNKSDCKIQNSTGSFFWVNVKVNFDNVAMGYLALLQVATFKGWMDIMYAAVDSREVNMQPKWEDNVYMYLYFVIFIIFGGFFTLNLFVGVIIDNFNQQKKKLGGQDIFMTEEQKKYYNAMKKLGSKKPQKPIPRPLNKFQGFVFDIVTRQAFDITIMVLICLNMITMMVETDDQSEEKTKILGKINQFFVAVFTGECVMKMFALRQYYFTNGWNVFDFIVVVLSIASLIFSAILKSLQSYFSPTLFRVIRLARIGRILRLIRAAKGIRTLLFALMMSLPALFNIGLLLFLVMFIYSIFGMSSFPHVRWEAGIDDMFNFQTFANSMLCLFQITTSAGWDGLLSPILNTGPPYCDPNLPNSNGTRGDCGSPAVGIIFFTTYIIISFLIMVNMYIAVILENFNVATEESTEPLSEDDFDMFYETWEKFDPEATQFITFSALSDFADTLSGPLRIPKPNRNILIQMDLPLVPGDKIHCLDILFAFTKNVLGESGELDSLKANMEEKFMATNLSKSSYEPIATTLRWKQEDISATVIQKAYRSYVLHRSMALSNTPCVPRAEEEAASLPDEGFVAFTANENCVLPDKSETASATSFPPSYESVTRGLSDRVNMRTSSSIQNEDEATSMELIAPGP

“4-(4,5-dichloro-2-(4-fluoro-2-methoxyphenoxy)benzamido)picolinic acid [Compound 76]” and O=C(O)c1ccc(NC(=O)c2ccc(C(F)(F)C(F)(F)F)cc2Oc2ccc(F)cc2Cl)cc1 [Compound 1, 4-(2-(2-chloro-4-fluorophenoxy)-4-(perfluoroethyl)benzamido)benzoic acid] are within 1.5-fold of each other in IC50: 12 nM for the first, 17 nM for the second.

O=C(O)c1ccc(NC(=O)c2ccc(C(F)(F)C(F)(F)F)cc2Oc2ccc(F)cc2F)cc1 [Compound 2, 4-(2-(2,4-difluorophenoxy)-4-(perfluoroethyl)benzamido)benzoic acid] and Cc1cc(F)ccc1Oc1cc(C(F)(F)C(F)(F)F)ccc1C(=O)Nc1ccc(C(=O)O)cc1 [Compound 3, 4-(2-(4-fluoro-2-methylphenoxy)-4-(perfluoroethyl)benzamido)benzoic acid] are within 1.5-fold of each other in IC50: 32 nM for the first, 22 nM for the second.

O=C(O)c1ccc(NC(=O)c2ccc(C(F)(F)F)cc2Oc2ccc(F)cc2Cl)cc1 [Compound 4, 4-(2-(2-chloro-4-fluorophenoxy)-4-(trifluoromethyl)benzamido)benzoic acid] and Cc1cc(F)ccc1Oc1cc(C(F)(F)F)ccc1C(=O)Nc1ccc(C(=O)O)cc1 [Compound 5, 4-(2-(4-fluoro-2-methylphenoxy)-4-(trifluoromethyl)benzamido)benzoic acid] are within 1.5-fold of each other in IC50: 58 nM for the first, 60 nM for the second.

Going from O=C(O)c1ccc(NC(=O)c2ccc(C(F)(F)F)cc2Oc2ccc(F)cc2F)cc1 [Compound 6, 4-(2-(2,4-difluorophenoxy)-4-(trifluoromethyl)benzamido)benzoic acid] to O=C(O)c1ccc(NC(=O)c2ccc(C(F)(F)F)cc2Oc2ccc(OC(F)(F)F)cc2)cc1 [Compound 7, 4-(2-(4-(trifluoromethoxy)phenoxy)-4-(trifluoromethyl)benzamido)benzoic acid], the IC50 falls from 145 nM to 37 nM (3.9-fold). The second is the more potent here.

Compared with O=C(O)c1ccc(NC(=O)c2c(Oc3ccc(F)cc3F)cc(C(F)(F)F)cc2C(F)(F)F)cc1 [Compound 8, 4-(2-(2,4-difluorophenoxy)-4,6-bis(trifluoromethyl)benzamido)benzoic acid], Cc1cc(F)ccc1Oc1cc(C(F)(F)F)cc(C(F)(F)F)c1C(=O)Nc1ccc(C(=O)O)cc1 [Compound 9, 4-(2-(4-fluoro-2-methylphenoxy)-4,6-bis(trifluoromethyl)benzamido)benzoic acid] is 3.1-fold lower in IC50: 405 nM for the first, 130 nM for the second. The second is the more potent here.

Going from COc1cc(F)ccc1Oc1cc(C(F)(F)F)cc(C(F)(F)F)c1C(=O)Nc1ccc(C(=O)O)cc1 [Compound 10, 4-(2-(4-fluoro-2-methoxyphenoxy)-4,6-bis(trifluoromethyl)benzamido)benzoic acid] to O=C(O)c1ccc(NC(=O)c2c(Oc3ccc(F)cc3)cc(C(F)(F)F)cc2C(F)(F)F)cc1 [Compound 11, 4-(2-(4-fluorophenoxy)-4,6-bis(trifluoromethyl)benzamido)benzoic acid], the IC50 rises from 37 nM to 305 nM (8.2-fold). The first is the more potent here.

First: COc1cc(F)ccc1Oc1cc(Cl)c(Cl)cc1C(=O)Nc1ccc(C(=O)O)cc1 [Compound 12, 4-(4,5-dichloro-2-(4-fluoro-2-methoxyphenoxy)benzamido)benzoic acid]
Second: O=C(O)c1ccc(NC(=O)c2cc(Cl)c(Cl)cc2Oc2ccc(F)cc2)cc1 [Compound 13, 4-(4,5-dichloro-2-(4-fluorophenoxy)benzamido)benzoic acid]
The IC50 of the first is 5.3-fold lower: 11 nM for the first, 58 nM for the second. The first is the more potent here.

Compared with Cc1cc(F)ccc1Oc1cc(Cl)c(Cl)cc1C(=O)Nc1ccc(C(=O)O)cc1 [Compound 14, 4-(4,5-dichloro-2-(4-fluoro-2-methylphenoxy)benzamido)benzoic acid], O=C(O)c1ccc(NC(=O)c2cc(Cl)c(Cl)cc2Oc2ccccc2)cc1 [Compound 15, 4-(4,5-dichloro-2-phenoxybenzamido)benzoic acid] is 19-fold higher in IC50: 15 nM for the first, 290 nM for the second. The first is the more potent here.

First: COc1ccc(Oc2cc(Cl)c(Cl)cc2C(=O)Nc2ccc(C(=O)O)cc2)c(F)c1 [Compound 16, 4-(4,5-dichloro-2-(2-fluoro-4-methoxyphenoxy)benzamido)benzoic acid]
Second: O=C(O)c1ccc(NC(=O)c2cc(Cl)c(Cl)cc2Oc2ccc(OCC(F)(F)F)cc2)cc1 [Compound 17, 4-(4,5-dichloro-2-(4-(2,2,2-trifluoroethoxy)phenoxy)benzamido)benzoic acid]
The IC50 of the first is 1.9-fold higher: 115 nM for the first, 62 nM for the second. The second is the more potent here.

Compared with COc1cc(Cl)ccc1Oc1cc(Cl)c(Cl)cc1C(=O)Nc1ccc(C(=O)O)cc1 [Compound 18, 4-(4,5-dichloro-2-(4-chloro-2-methoxyphenoxy)benzamido)benzoic acid], O=C(O)c1ccc(NC(=O)c2cc(Cl)c(Cl)cc2Oc2ccccc2OC(F)F)cc1 [Compound 19, 4-(4,5-dichloro-2-(2-(difluoromethoxy)phenoxy)benzamido)benzoic acid] is 6-fold higher in IC50: 11 nM for the first, 66 nM for the second.

Cc1cc(Cl)ccc1Oc1cc(Cl)c(Cl)cc1C(=O)Nc1ccc(C(=O)O)cc1 [Compound 20, 4-(4,5-dichloro-2-(4-chloro-2-methylphenoxy)benzamido)benzoic acid] and COc1ccc(Oc2cc(Cl)c(Cl)cc2C(=O)Nc2ccc(C(=O)O)cc2)c(OC)c1 [Compound 21, 4-(4,5-dichloro-2-(2,4-dimethoxyphenoxy)benzamido)benzoic acid] are within 1.5-fold of each other in IC50: 24 nM for the first, 27 nM for the second.

Going from COc1ccc(Oc2cc(Cl)c(Cl)cc2C(=O)Nc2ccc(C(=O)O)cc2)cc1F [Compound 22, 4-(4,5-dichloro-2-(3-fluoro-4-methoxyphenoxy)benzamido)benzoic acid] to O=C(O)c1ccc(NC(=O)c2cc(Cl)c(Cl)cc2Oc2ccc(F)cc2Cl)cc1 [Compound 23, 4-(4,5-dichloro-2-(2-chloro-4-fluorophenoxy)benzamido)benzoic acid], the IC50 falls from 78 nM to 33 nM (2.4-fold).

Going from O=C(O)c1ccc(NC(=O)c2cc(Cl)c(Cl)cc2Oc2ccc(F)cc2F)cc1 [Compound 24, 4-(4,5-dichloro-2-(2,4-difluorophenoxy)benzamido)benzoic acid] to COc1ccc(Oc2cc(Cl)c(Cl)cc2C(=O)Nc2ccc(C(=O)O)cc2)c(Cl)c1 [Compound 25, 4-(4,5-dichloro-2-(2-chloro-4-methoxyphenoxy)benzamido)benzoic acid], the IC50 rises from 53 nM to 92 nM (1.7-fold).

O=C(O)c1ccc(NC(=O)c2cc(Cl)c(Cl)cc2Oc2ccc(OC(F)(F)F)cc2)cc1 [Compound 26, 4-(4,5-dichloro-2-(4-(trifluoromethoxy)phenoxy)benzamido)benzoic acid] and COc1cc(F)ccc1Oc1cc(C(F)(F)C(F)(F)F)ccc1C(=O)Nc1ccc(C(=O)O)cc1 [Compound 27, 4-(2-(4-fluoro-2-methoxyphenoxy)-4-(perfluoroethyl)benzamido)benzoic acid] are within 1.5-fold of each other in IC50: 24 nM for the first, 20 nM for the second.

Compared with Cc1cc(F)ccc1Oc1ccc(C(F)(F)F)cc1C(=O)Nc1ccc(C(=O)O)cc1 [Compound 29, 4-(2-(4-fluoro-2-methylphenoxy)-5-(trifluoromethyl)benzamido)benzoic acid], O=C(O)c1ccc(NC(=O)c2cc(Cl)c(Cl)cc2Oc2ccc(F)cc2)cn1 [Compound 30, 5-(4,5-dichloro-2-(4-fluorophenoxy)benzamido)picolinic acid] is 7.2-fold lower in IC50: 245 nM for the first, 34 nM for the second.

First: Cc1cc(F)ccc1Oc1cc(Cl)c(Cl)cc1C(=O)Nc1ccc(C(=O)O)nc1 [Compound 32, 5-(4,5-dichloro-2-(4-fluoro-2-methylphenoxy)benzamido)picolinic acid]
Second: O=C(O)c1ccc(NC(=O)c2cc(Cl)c(Cl)cc2Oc2ccccc2)cn1 [Compound 33, 5-(4,5-dichloro-2-phenoxybenzamido)picolinic acid]
The IC50 of the first is 17-fold lower: 11 nM for the first, 190 nM for the second.
